{"source": "patent US20250144177A1", "about": "(Katholieke Universiteit Leuven, priority 2022, published 2025)", "molecules": {"B1": {"name": "VAP-1/SSAO: an endothelial bound adhesion molecule with amine oxidase activity involved in neutrophil egress from the microvasculature (protein, UniProt Q16853 1-763, looked up)", "Amine oxidase …": "MNQKTILVLLILAVITIFALVCVLLVGRGGDGGEPSQLPHCPSVSPSAQPWTHPGQSQLFADLSREELTAVMRFLTQRLGPGLVDAAQARPSDNCVFSVELQLPPKAAALAHLDRGSPPPAREALAIVFFGRQPQPNVSELVVGPLPHPSYMRDVTVERHGGPLPYHRRPVLFQEYLDIDQMIFNRELPQASGLLHHCCFYKHRGRNLVTMTTAPRGLQSGDRATWFGLYYNISGAGFFLHHVGLELLVNHKALDPARWTIQKVFYQGRYYDSLAQLEAQFEAGLVNVVLIPDNGTGGSWSLKSPVPPGPAPPLQFYPQGPRFSVQGSRVASSLWTFSFGLGAFSGPRIFDVRFQGERLVYEISLQEALAIYGGNSPAAMTTRYVDGGFGMGKYTTPLTRGVDCPYLATYVDWHFLLESQAPKTIRDAFCVFEQNQGLPLRRHHSDLYSHYFGGLAETVLVVRSMSTLLNYDYVWDTVFHPSGAIEIRFYATGYISSAFLFGATGKYGNQVSEHTLGTVHTHSAHFKVDLDVAGLENWVWAEDMVFVPMAVPWSPEHQLQRLQVTRKLLEMEEQAAFLVGSATPRYLYLASNHSNKWGHPRGYRIQMLSFAGEPLPQNSSMARGFSWERYQLAVTQRKEEEPSSSSVFNQNDPWAPTVDFSDFINNETIAGKDLVAWVTAGFLHIPHAEDIPNTVTVGNGVGFFLRPYNFFDEDPSFYSADSIYFRGDQDAGACEVNPLACLPQAAACAPDLPAFSHGGFSHN"}}, "key": {"[1]": {"test": "Resistance to proteolytic degradation by plasmin (nano-LC/MS)", "type": "in vitro ADME", "settings": "isolated enzyme plasmin; peptide 50 ng/ml, 37° C., plasmin 50 μg/ml, pH 7.4; after 4 h incubation; read-out: degraded with plasmin", "source_text": "(§1) The following peptides were compared for resistance against proteolytic degradation: CXCL9 (74-103) with L-amino acids (=L-amino acid peptide); CXCL9 (74-103) with D-amino acids (=D-amino acid peptide) and Acetyl-OOOQONGOOHQOOOQQOVROSQRORQOOTT [SEQ ID NO:2] This is a peptide derived from CXCL9 (74-103) with an acetyl-group on the N-terminus, lysines replaced by ornithine and VL (at positions 88 and 89) replaced by QQ and serine (at position 97) also replaced by ornithine (=ornithine peptide).\n(§2) Incubations were performed with peptides at 50 ng/ml and 37° C. for 5 minutes up to 24 hours with trypsin, plasmin or cathepsin G. After the incubation, the reaction was stopped through addition of trifluoroacetic acid (to reach a final pH<4) and purified by nano-LC with on-line detection of eluted peptides by mass spectrometry.\n(§3) Sample buffer for incubations with plasmin: 50 mM Tris-HCl 0.5 M NaCl PH 7.4; final plasmin conc. 50 μg/ml Sample buffer for incubations with cathepsin G: 20 mM Tris-HCl+1 mM CaCl2 pH 7.4; final conc. Cathepsin G at 13 mU/litre."}, "plasmin [2]": {"biological_target": "plasmin (Homo sapiens, UniProt P00747)", "sequence (P00747 581-810 limits assumed, species assumed)": "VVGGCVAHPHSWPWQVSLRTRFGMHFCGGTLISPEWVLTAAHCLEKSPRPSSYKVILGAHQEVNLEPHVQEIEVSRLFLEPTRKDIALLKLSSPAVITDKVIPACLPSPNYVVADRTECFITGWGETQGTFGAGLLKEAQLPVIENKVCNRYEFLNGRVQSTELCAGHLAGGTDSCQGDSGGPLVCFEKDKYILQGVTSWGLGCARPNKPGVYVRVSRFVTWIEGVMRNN", "sequence (P00747 97-580 partner limits assumed, species assumed)": "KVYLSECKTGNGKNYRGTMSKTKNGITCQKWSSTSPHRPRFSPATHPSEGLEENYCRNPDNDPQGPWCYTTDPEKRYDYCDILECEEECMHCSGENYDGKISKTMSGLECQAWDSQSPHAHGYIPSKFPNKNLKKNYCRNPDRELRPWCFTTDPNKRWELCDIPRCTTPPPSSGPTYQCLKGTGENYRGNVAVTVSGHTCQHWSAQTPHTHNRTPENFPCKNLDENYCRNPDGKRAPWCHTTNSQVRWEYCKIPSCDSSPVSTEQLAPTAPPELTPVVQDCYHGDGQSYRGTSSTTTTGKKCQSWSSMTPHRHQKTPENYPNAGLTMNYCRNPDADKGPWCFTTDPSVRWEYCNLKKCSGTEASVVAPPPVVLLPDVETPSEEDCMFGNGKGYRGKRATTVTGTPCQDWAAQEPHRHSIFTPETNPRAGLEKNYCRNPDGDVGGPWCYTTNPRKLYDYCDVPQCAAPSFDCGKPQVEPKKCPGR", "test": "Resistance to proteolytic degradation by plasmin (nano-LC/MS)", "type": "in vitro ADME", "settings": "peptide 50 ng/ml, 37° C., plasmin 50 μg/ml, pH 7.4", "source_text": "as §1, §2, §3"}, "cathepsin G [3]": {"biological_target": "T1, cathepsin G (Homo sapiens, UniProt P08311)", "T1 sequence (P08311 21-244)": "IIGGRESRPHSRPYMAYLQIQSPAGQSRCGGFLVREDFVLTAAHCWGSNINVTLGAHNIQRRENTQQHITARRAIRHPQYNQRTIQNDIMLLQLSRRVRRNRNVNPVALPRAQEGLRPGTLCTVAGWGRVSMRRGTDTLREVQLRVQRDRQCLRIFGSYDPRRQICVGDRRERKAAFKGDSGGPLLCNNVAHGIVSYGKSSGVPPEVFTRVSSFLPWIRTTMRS", "test": "Resistance to proteolytic degradation by cathepsin G (nano-LC/MS)", "type": "in vitro ADME", "settings": "peptide 50 ng/ml, 37° C., cathepsin G 13 mU/litre, pH 7.4", "source_text": "as §1, §2, §3"}, "plasmin [4]": {"test_system": "plasmin", "test": "50 mM Tris-HCl 0.5 M NaCl PH 7.4; final plasmin conc. 50 μg/ml", "settings": "37° C., up to 24 hours"}, "trypsin": {"test_system": "trypsin", "test": "100 mM Tris-HCl pH 8.5; final trypsin (from Sigma) conc. 250 ng/ml", "settings": "37° C., up to 24 hours"}, "[5]": {"test": "Resistance to proteolytic degradation by cathepsin G (nano-LC/MS)", "type": "in vitro ADME", "settings": "cathepsin G (isolated protease); peptide 50 ng/ml, 37° C., cathepsin G 13 mU/litre, pH 7.4; after 4 h; read-out: degraded with cathepsin G", "source_text": "as §1, §2, §3"}, "cathepsin G [6]": {"test_system": "cathepsin G", "test": "20 mM Tris-HCl+1 mM CaCl2 pH 7.4; final conc. Cathepsin G at 13 mU/litre", "settings": "37° C., up to 24 hours"}, "K. pneumonia": {"test_system": "K. pneumonia", "settings": "preventive treatment / pre-treatment; cited from earlier work"}}, "note": "Non-standard residues stand in square brackets, D forms with d. Residues, ends and D or L forms follow the SMILES beside them. No end group written: not given here. Orn = NCCC[C@H](N)C(=O)O"}
{"molecule": "CC(=O)N[C@@H](CCCN)C(=O)N[C@@H](CCCN)C(=O)N[C@@H](CCCN)C(=O)N[C@@H](CCC(N)=O)C(=O)N[C@@H](CCCN)C(=O)N[C@@H](CC(N)=O)C(=O)NCC(=O)N[C@@H](CCCN)C(=O)N[C@@H](CCCN)C(=O)N[C@@H](Cc1c[nH]cn1)C(=O)N[C@@H](CCC(N)=O)C(=O)N[C@@H](CCCN)C(=O)N[C@@H](CCCN)C(=O)N[C@@H](CCCN)C(=O)N[C@@H](CCC(N)=O)C(=O)N[C@@H](CCC(N)=O)C(=O)N[C@@H](CCCN)C(=O)N[C@H](C(=O)N[C@@H](CCCNC(=N)N)C(=O)N[C@@H](CCCN)C(=O)N[C@@H](CO)C(=O)N[C@@H](CCC(N)=O)C(=O)N[C@@H](CCCNC(=N)N)C(=O)N[C@@H](CCCN)C(=O)N[C@@H](CCCNC(=N)N)C(=O)N[C@@H](CCC(N)=O)C(=O)N[C@@H](CCCN)C(=O)N[C@@H](CCCN)C(=O)N[C@H](C(=O)N[C@H](C(=O)O)[C@@H](C)O)[C@@H](C)O)C(C)C", "note": "[Ornithine peptide, Acetyl-OOOQONGOOHQOOOQQOVROSQRORQOOTT] (Ac-[Orn][Orn][Orn]Q[Orn]NG[Orn][Orn]HQ[Orn][Orn][Orn]QQ[Orn]VR[Orn]SQR[Orn]RQ[Orn][Orn]TT-OH; C-terminus assumed)", "values": [{"measurement": "metabolised at 4 h", "setting": "[1]", "result": "> 70", "unit": "%"}, {"measurement": "cleavage after arginine with plasmin", "setting": "plasmin [2]; after 5 min", "result": "< 10", "unit": "%"}, {"measurement": "cleavage with cathepsin G", "setting": "cathepsin G [3]; 5 min up to 4 h incubation", "result": "no cleavage"}]}
{"molecule": "CXCL9 (74-103) with D-amino acids", "values": [{"measurement": "not cleaved", "setting": "plasmin [4]", "result": "resistant to plasmin at incubations between 5 min and 8 hours"}, {"measurement": "not cleaved", "setting": "trypsin", "result": "fully resistant to trypsin at incubations from 5 min. up to 4 hours"}]}
{"molecule": "CC(C)C[C@@H](NC(=O)[C@H](NC(=O)[C@@H](CCCCN)NC(=O)[C@@H](CCCCN)NC(=O)[C@@H](CCCCN)NC(=O)[C@@H](CCC(N)=O)NC(=O)[C@@H](Cc1c[nH]cn1)NC(=O)[C@@H](CCCCN)NC(=O)[C@@H](CCCCN)NC(=O)CNC(=O)[C@@H](CC(N)=O)NC(=O)[C@@H](CCCCN)NC(=O)[C@@H](CCC(N)=O)NC(=O)[C@@H](CCCCN)NC(=O)[C@@H](CCCCN)NC(=O)[C@H](N)CCCCN)C(C)C)C(=O)N[C@H](CCCCN)C(=O)N[C@@H](C(=O)N[C@H](CCCNC(=N)N)C(=O)N[C@H](CCCCN)C(=O)N[C@H](CO)C(=O)N[C@H](CCC(N)=O)C(=O)N[C@H](CCCNC(=N)N)C(=O)N[C@H](CO)C(=O)N[C@H](CCCNC(=N)N)C(=O)N[C@H](CCC(N)=O)C(=O)N[C@H](CCCCN)C(=O)N[C@H](CCCCN)C(=O)N[C@@H](C(=O)N[C@@H](C(=O)O)[C@H](C)O)[C@H](C)O)C(C)C", "note": "[D-amino acid peptide] (H-[dK][dK][dK][dQ][dK][dN]G[dK][dK][dH][dQ][dK][dK][dK][dV][dL][dK][dV][dR][dK][dS][dQ][dR][dS][dR][dQ][dK][dK][dT][dT]-OH; N-terminus and C-terminus assumed)", "values": [{"measurement": "resistance to plasmin", "setting": "plasmin [2]; between 5 min and 8 hours", "result": "resistant"}, {"measurement": "metabolised at 24 h, 50 ng/ml", "setting": "cathepsin G [3]; cathepsin G (isolated protease), after 24 h", "result": 68, "unit": "%"}, {"measurement": "degradation with cathepsin G", "setting": "cathepsin G [3]; up to 8 h", "result": "less than 5%"}]}
{"molecule": "KKKQKNGKKHQKKKVLKVRKSQRSRQKKTT [CXCL9 (74-103)]", "values": [{"measurement": "degradation with plasmin", "setting": "plasmin [2]; after 5 min", "result": "partial degraded"}, {"measurement": "degradation with plasmin", "setting": "plasmin [2]; after 30 minutes", "result": "fully degradation"}, {"measurement": "metabolised at 4 h, 50 ng/ml", "setting": "[5]", "result": "> 90", "unit": "%"}, {"measurement": "stability to cathepsin G", "setting": "cathepsin G [3]; up to 2 h", "result": "stable"}]}
{"molecule": "Acetyl-OOOQONGOOHQOOOQQOVROSQRORQOOTT", "values": [{"measurement": "not cleaved", "setting": "cathepsin G [6]", "result": "no cleavage with cathepsin G after 5 min up to 4 h incubation"}]}
{"molecule": "B1", "values": [{"measurement": "bacterial load", "setting": "K. pneumonia", "result": "increased"}, {"measurement": "neutrophil recruitment / migration", "setting": "K. pneumonia", "result": "decreased"}]}
